# Read-outs that look alike come from different tables or passages of the source. Where a SMILES comes first, the peptide text is derived from it.
# Key:
# cloned KOR = cloned KOR (Rattus norvegicus, UniProt P34975); experiment: [35S]GTPγS assay at KOR; format: biochemical; settings: SEM
# cloned rat KOR = cloned rat KOR (Rattus norvegicus, UniProt P34975); experiment: Radioligand binding assay, KOR; settings: SEM
# mouse DOR = mouse DOR (Mus musculus, UniProt P32300); experiment: Radioligand binding assay, DOR
# mouse DOR, sequence (P32300 whole entry): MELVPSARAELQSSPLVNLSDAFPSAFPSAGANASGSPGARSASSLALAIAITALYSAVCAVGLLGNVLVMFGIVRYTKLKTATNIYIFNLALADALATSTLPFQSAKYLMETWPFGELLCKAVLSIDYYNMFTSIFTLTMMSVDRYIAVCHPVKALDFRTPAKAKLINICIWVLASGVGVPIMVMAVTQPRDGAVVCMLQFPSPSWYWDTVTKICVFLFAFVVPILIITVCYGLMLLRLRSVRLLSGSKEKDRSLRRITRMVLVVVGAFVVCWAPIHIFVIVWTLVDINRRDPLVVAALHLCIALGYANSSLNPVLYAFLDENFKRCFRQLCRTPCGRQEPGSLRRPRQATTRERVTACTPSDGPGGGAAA
# cloned rat MOR = cloned rat MOR (Rattus norvegicus, UniProt P33535); experiment: Radioligand binding assay, MOR; settings: SEM
# cloned rat MOR, sequence (P33535 whole entry): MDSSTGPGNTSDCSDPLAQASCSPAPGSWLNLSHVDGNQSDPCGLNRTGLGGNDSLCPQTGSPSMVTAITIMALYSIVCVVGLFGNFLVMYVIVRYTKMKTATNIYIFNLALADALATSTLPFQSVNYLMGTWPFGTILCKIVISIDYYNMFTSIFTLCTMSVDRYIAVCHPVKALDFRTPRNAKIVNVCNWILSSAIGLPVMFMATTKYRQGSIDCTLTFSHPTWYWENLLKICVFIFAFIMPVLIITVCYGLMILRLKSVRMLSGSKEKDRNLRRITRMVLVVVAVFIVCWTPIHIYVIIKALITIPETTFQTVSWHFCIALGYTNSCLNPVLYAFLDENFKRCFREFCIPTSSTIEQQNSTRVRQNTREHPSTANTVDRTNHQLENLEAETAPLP
# cloned KOR, sequence (P34975 whole entry): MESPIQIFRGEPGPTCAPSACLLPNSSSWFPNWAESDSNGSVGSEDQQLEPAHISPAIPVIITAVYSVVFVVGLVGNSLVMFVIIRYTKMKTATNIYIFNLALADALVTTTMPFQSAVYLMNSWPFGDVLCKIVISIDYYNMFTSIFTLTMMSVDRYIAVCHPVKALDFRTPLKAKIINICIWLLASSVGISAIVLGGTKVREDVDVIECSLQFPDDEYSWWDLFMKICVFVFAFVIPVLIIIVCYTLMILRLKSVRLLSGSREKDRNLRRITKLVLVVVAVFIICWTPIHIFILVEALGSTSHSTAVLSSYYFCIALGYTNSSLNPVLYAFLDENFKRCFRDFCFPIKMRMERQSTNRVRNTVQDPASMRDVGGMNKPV
# cloned rat KOR, sequence (P34975 whole entry): as above
SMILES,EC50 (cloned KOR) [nM],Ki (cloned rat KOR) [nM],Ki (mouse DOR; SEM) [nM],Ki (cloned rat MOR) [nM],Ki (mouse DOR) [nM]
CC(C)C[C@H](NC(=O)[C@H](Cc1ccccc1)NC(=O)CNC(=O)CNC(=O)[C@@H](N)Cc1ccc(O)cc1)C(=O)N[C@@H](CCCNC(=N)N)C(=O)N[C@@H](C)C(=O)N[C@@H](CCC(N)=O)C(=O)N[C@@H](Cc1ccccc1)C(=O)N[C@@H](CCCCN)C(=O)N[C@H](C(=O)N[C@H](C(=O)N[C@H](C(N)=O)[C@@H](C)O)C(C)C)C(C)C [Compound 5] (H-YGGFLRAQFKVVT-NH2),802 ± 290,82.4 ± 9.3,67.5 ± 8.3,16.7 ± 5.1,–
CC(C)C[C@H](NC(=O)[C@H](Cc1ccccc1)NC(=O)CNC(=O)CNC(=O)[C@@H](N)Cc1ccc(O)cc1)C(=O)N[C@@H](C)C(=O)N[C@@H](CCCNC(=N)N)C(=O)N[C@@H](CCC(N)=O)C(=O)N[C@@H](Cc1ccccc1)C(=O)N[C@@H](CCCCN)C(=O)N[C@H](C(=O)N[C@H](C(=O)N[C@H](C(N)=O)[C@@H](C)O)C(C)C)C(C)C [Compound 4] (H-YGGFLARQFKVVT-NH2),116 ± 21,43.1 ± 2.8,25.7 ± 1.6,14.1 ± 3,–
CC(C)[C@H](NC(=O)[C@H](CCCCN)NC(=O)[C@H](Cc1ccccc1)NC(=O)[C@H](CCC(N)=O)NC(=O)[C@H](CCCNC(=N)N)NC(=O)[C@H](CCCNC(=N)N)NC(=O)[C@H](C)NC(=O)[C@H](Cc1ccccc1)NC(=O)CNC(=O)CNC(=O)[C@@H](N)Cc1ccc(O)cc1)C(=O)N[C@H](C(=O)N[C@H](C(N)=O)[C@@H](C)O)C(C)C [Compound 3] (H-YGGFARRQFKVVT-NH2),109 ± 34,12.1 ± 5.2,265 ± 43,20.3 ± 3.1,–
CC(C)C[C@H](NC(=O)[C@H](Cc1ccccc1)NC(=O)CNC(=O)CNC(=O)[C@H](C)N)C(=O)N[C@@H](CCCNC(=N)N)C(=O)N[C@@H](CCCNC(=N)N)C(=O)N[C@@H](CCC(N)=O)C(=O)N[C@@H](Cc1ccccc1)C(=O)N[C@@H](CCCCN)C(=O)N[C@H](C(=O)N[C@H](C(=O)N[C@H](C(N)=O)[C@@H](C)O)C(C)C)C(C)C [Compound 1] (H-AGGFLRRQFKVVT-NH2),2650 ± 890,886 ± 123,–,651 ± 70,> 10000
CC(C)C[C@H](NC(=O)[C@H](Cc1ccccc1)NC(=O)CNC(=O)CNC(=O)[C@@H](N)Cc1ccc(O)cc1)C(=O)N[C@@H](CCCNC(=N)N)C(=O)N[C@@H](CCCNC(=N)N)C(=O)N[C@@H](CCC(N)=O)C(=O)N[C@@H](Cc1ccccc1)C(=O)N[C@@H](C)C(=O)N[C@H](C(=O)N[C@H](C(=O)N[C@H](C(N)=O)[C@@H](C)O)C(C)C)C(C)C [Compound 8] (H-YGGFLRRQFAVVT-NH2),6.36 ± 1.7,31.6 ± 6,119 ± 16,40.5 ± 3.9,–
CC(C)C[C@H](NC(=O)[C@H](Cc1ccccc1)NC(=O)CNC(=O)CNC(=O)[C@@H](N)Cc1ccc(O)cc1)C(=O)N[C@@H](CCCNC(=N)N)C(=O)N[C@@H](CCCNC(=N)N)C(=O)N[C@@H](CCC(N)=O)C(=O)N[C@@H](Cc1ccccc1)C(=O)N[C@@H](CCCCN)C(=O)N[C@@H](C)C(=O)N[C@H](C(=O)N[C@H](C(N)=O)[C@@H](C)O)C(C)C [Compound 9] (H-YGGFLRRQFKAVT-NH2),8.79 ± 2.2,12.4 ± 1.6,58.8 ± 3.4,7.45 ± 2.69,–
CC(C)C[C@H](NC(=O)[C@H](C)NC(=O)CNC(=O)CNC(=O)[C@@H](N)Cc1ccc(O)cc1)C(=O)N[C@@H](CCCNC(=N)N)C(=O)N[C@@H](CCCNC(=N)N)C(=O)N[C@@H](CCC(N)=O)C(=O)N[C@@H](Cc1ccccc1)C(=O)N[C@@H](CCCCN)C(=O)N[C@H](C(=O)N[C@H](C(=O)N[C@H](C(N)=O)[C@@H](C)O)C(C)C)C(C)C [Compound 2] (H-YGGALRRQFKVVT-NH2),1180 ± 330,1510 ± 221,–,1040 ± 100,> 10000
"CC(C)C[C@H](NC(=O)[C@H](Cc1ccccc1)NC(=O)CNC(=O)CNC(=O)[C@@H](N)Cc1ccc(O)cc1)C(=O)N[C@@H](CCCNC(=N)N)C(=O)N[C@@H](CCCNC(=N)N)C(=O)N[C@@H](CCC(N)=O)C(=O)N[C@@H](Cc1ccccc1)C(=O)N[C@@H](CCCCN)C(=O)N[C@H](C(=O)N[C@H](C(=O)N[C@H](C(N)=O)[C@@H](C)O)C(C)C)C(C)C [Dyn B amide, reference compound]",9.14 ± 1.96,6.3 ± 1.68,43.2 ± 1.6,8.05 ± 2.87,–
CC(C)C[C@H](NC(=O)[C@H](Cc1ccccc1)NC(=O)CNC(=O)CNC(=O)[C@@H](N)Cc1ccc(O)cc1)C(=O)N[C@@H](CCCNC(=N)N)C(=O)N[C@@H](CCCNC(=N)N)C(=O)N[C@@H](CCC(N)=O)C(=O)N[C@@H](C)C(=O)N[C@@H](CCCCN)C(=O)N[C@H](C(=O)N[C@H](C(=O)N[C@H](C(N)=O)[C@@H](C)O)C(C)C)C(C)C [Compound 7] (H-YGGFLRRQAKVVT-NH2),14.8 ± 2.6,11.3 ± 1.7,42.1 ± 2.5,3.76 ± 0.22,–
CC(C)C[C@H](NC(=O)[C@H](Cc1ccccc1)NC(=O)CNC(=O)CNC(=O)[C@@H](N)Cc1ccc(O)cc1)C(=O)N[C@@H](CCCNC(=N)N)C(=O)N[C@@H](CCCNC(=N)N)C(=O)N[C@@H](C)C(=O)N[C@@H](Cc1ccccc1)C(=O)N[C@@H](CCCCN)C(=O)N[C@H](C(=O)N[C@H](C(=O)N[C@H](C(N)=O)[C@@H](C)O)C(C)C)C(C)C [Compound 6] (H-YGGFLRRAFKVVT-NH2),20.2 ± 10.8,13 ± 0.96,54 ± 6.9,4.32 ± 0.1,–

# Reference: paper PMC6003702 (Biopolymers, 2017)
